{"source": "paper PMC6105827", "about": "“Antitrypanosomal 8-Hydroxy-Naphthyridines Are Chelators of Divalent Transition Metals” (Antimicrobial Agents and Chemotherapy, 2018)", "key": {"[1]": {"system": "L. donovani promastigotes", "test": "Measurement of 8-HNT compound uptake by UPLC-MS/MS", "format": "cell-based, Leishmania donovani", "settings": "5 μM, 30 min", "description": "Triplicate samples of the culture (2 × 10^7 cells; 1 ml) were harvested by centrifugation at 16,000 × g for 5 min. The supernatant (200 μl) was collected from each centrifuged sample, transferred to a fresh Eppendorf tube, and terminated by the addition of 400 μl acetonitrile (supernatant fraction). The remaining supernatant was discarded, and acetonitrile (60 μl) was added to each pellet fraction. Finally, 400 μl acetonitrile was added to 200 μl of culture (equivalent of 4 × 10^6 cells) (total fraction). All fractions were then centrifuged at 16,000 × g for 10 min and diluted as required with MilliQ water. All samples were analyzed in triplicate on a Waters Acquity UPLC instrument coupled to a Waters micro TQs mass spectrometer. Chromatographic separation was achieved by using a Waters BEH (bridged ethylene hybrid) C18 column (1.7-μm particle size, 2.1 by 50 mm), with a flow rate of 0.6 ml min^−1, an injection volume of 0.2 μl, and the following 2-min gradient: 95% mobile phase A initially, with holding for 0.3 min before decreasing to 5% mobile phase A over the next minute and holding for a further 0.49 min before returning to 95% mobile phase A. Mobile phase A was water plus 0.1% formic acid, and mobile phase B was methanol plus 0.1% formic acid. […]"}, "[2]": {"system": "L. donovani promastigotes", "test": "L. donovani promastigote compound sensitivity assay (with/without metal salts)", "description": "The clonal Leishmania donovani cell line LdBOB (derived from MHOM/SD/62/1S-CL2D) was grown as promastigotes at 28°C, as described previously ([53]). Bloodstream-form T. brucei MiTat 1.2 clone 221a and its derived subline, 2T1, were cultured at 37°C in the presence of 5% CO2 in HMI9-T medium, as described previously ([54]). The human carcinoma HepG2 cell line was grown at 37°C with 5% CO2 in minimal Eagle's medium (MEM) with GlutaMAX (1×; Sigma-Aldrich), nonessential amino acids (Sigma-Aldrich), and 10% FBS. Human HepG2 and THP-1 cells used in this study were ethically sourced from the ATCC.\n(§1) L. donovani intramacrophage ([7]), HepG2 ([55]), T. brucei ([56]), and L. donovani promastigote ([57]) compound sensitivity assays were carried out as described previously. Human HepG2 and THP-1 cells used in these assays were provided by the ATCC. Data were processed by using GRAFIT (version 5.0.4; Erithacus Software) and fitted to a 2-parameter equation to obtain the effective concentration inhibiting growth by 50% (EC50). Data are presented as the means of results from at least two independent experiments.\nIn the first instance, the maximum tolerated concentrations of ZnCl2, CaCl2, CuCl2, MgCl2, MnCl2, and FeCl2 were determined for each cell type. […] Standard drug sensitivity assays were carried out (as described above) for each cell type with compounds 1, 2, and 3 in the presence and absence of the maximum tolerated concentration of metal salt."}, "THP-1 cells": {"system": "THP-1 cells", "test": "THP-1 cell sensitivity", "format": "cell-based", "settings": "Homo sapiens", "description": "as §1"}}, "note": "Read-outs that look alike come from different tables or passages of the source.", "data": [{"molecule": "Cc1nnc(-c2nc(NCc3ccc(Cl)cc3)c3cccnc3c2O)[nH]1", "note": "[Compound 1]", "values": [{"measurement": "Accumulation within cells relative to supernatant (equivalent Kp values)", "setting": "[1]; 4°C", "value": "29 ± 13", "unit": "times"}, {"measurement": "Accumulation within cells relative to supernatant (equivalent Kp values)", "setting": "[1]; 37°C", "value": "296 ± 69", "unit": "times"}, {"measurement": "EC50", "setting": "[2]; Leishmania donovani, read-out: EC50 values, WT, promastigotes, absence of cation, FeCl2 experiment", "value": "800 ± 30", "unit": "nM"}, {"measurement": "EC50", "setting": "[2]; Leishmania donovani, read-out: EC50 values, WT, promastigotes, absence of cation, ZnCl2 experiment", "value": "800 ± 10", "unit": "nM"}, {"measurement": "EC50", "setting": "[2]; Leishmania donovani, read-out: L. donovani pro EC50, promastigotes (Fig. 1)", "value": 760, "unit": "nM"}, {"measurement": "Shift", "setting": "[2]; promastigotes, FeCl2 (100 μM) vs WT", "value": 2.0, "unit": "fold"}, {"measurement": "Shift", "setting": "[2]; promastigotes, ZnCl2 (100 μM) vs WT", "value": 11.0, "unit": "fold"}, {"measurement": "Shift", "setting": "[2]; promastigotes, ZnCl2 (100 μM) vs WT, listed as compound 1", "value": 11, "unit": "fold"}, {"measurement": "EC50", "setting": "[2]; read-out: EC50 values, WT, promastigotes, absence of cation, FeCl2 experiment", "value": "780 ± 30", "unit": "nM"}, {"measurement": "EC50", "setting": "THP-1 cells", "value": "> 50000", "unit": "nM"}]}]}
